Measured values from US20240124439A1, “Pyrido[2,3-D]Imidazole Derivatives and Their Use As Inhibitors of ITK for the Treatment of Skin Disease” (Pfizer Inc., priority 2020, published 2024).

How the values were obtained:
[1] = target: Tropomyosin Receptor Kinase A (TRKA), NTRK1 enzyme (Homo sapiens (Human), UniProt P04629); experiment: TRKA (NTRK1) ThermoFisher Z'-LYTE enzyme assay; type: biochemical; details: test compound 1 uM, ATP 1 mM; arithmetic mean of count n
Description: TRKA, also known as neurotrophic tyrosine kinase receptor type 1 (NTKR1) activity was determined by measuring the effect of a test compound on the activity against the NTRK1 enzyme using the ThermoFisher Z′-LYTE Assay fluorescence-based coupled enzyme format (www.thermofisher.com/selectscreen). Test compounds were screened at a fixed concentration of 1 uM and the % inhibition was determined compared to controls at a fixed ATP concentration of 1 mM. The resulting effect value for the tested compound was compared to the assay controls to determine the % inhibition (%).

[2] = target: IL-2-Inducible T-Cell Kinase (ITK) (Homo sapiens (Human), UniProt Q08881); experiment: ITK enzyme assay (IL-2-inducible T-cell kinase activity); type: biochemical; details: geometric mean of count n
IL-2-Inducible T-Cell Kinase (ITK), sequence (Q08881 whole entry): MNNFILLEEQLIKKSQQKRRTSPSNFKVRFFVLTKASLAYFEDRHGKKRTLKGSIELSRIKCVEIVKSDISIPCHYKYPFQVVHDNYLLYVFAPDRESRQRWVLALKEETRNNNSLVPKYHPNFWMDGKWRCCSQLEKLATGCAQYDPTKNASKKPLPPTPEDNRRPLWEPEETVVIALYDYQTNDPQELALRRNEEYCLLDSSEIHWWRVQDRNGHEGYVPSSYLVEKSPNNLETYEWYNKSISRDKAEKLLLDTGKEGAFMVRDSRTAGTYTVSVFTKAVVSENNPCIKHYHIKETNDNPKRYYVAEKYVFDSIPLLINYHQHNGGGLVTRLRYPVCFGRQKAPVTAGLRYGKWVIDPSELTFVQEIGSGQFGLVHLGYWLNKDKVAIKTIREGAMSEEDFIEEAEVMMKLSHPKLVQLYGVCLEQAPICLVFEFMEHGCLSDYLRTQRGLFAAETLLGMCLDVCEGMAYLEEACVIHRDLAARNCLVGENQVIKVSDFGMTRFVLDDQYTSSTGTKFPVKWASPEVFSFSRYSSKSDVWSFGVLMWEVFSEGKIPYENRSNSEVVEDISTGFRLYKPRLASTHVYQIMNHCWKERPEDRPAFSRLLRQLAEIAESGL
Summary of the method: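 Full-length N-Flag/C-His human ITK, pre-incubated 30 min at RT with compound. Reaction in HEPES pH 7.5 buffer with MgCl2, glutathione, gelatin and Brij-35, started with BTK peptide substrate, 60 min at RT. EDTA stop, PT66/APC TR-FRET detection overnight; IC50 fitted by four-parameter logistic.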

[3] = system: activated CD4+ human T-cells (IL-2); experiment: IL-2 inhibition in supernatants from activated CD4+ human T-cells (cisbio HTRF); type: cell-based; details: CD3/CD28-activated CD4+ human T cells, ImmunoCult stimulation 20 to 24 hrs, geometric mean of count n
Summary of the method: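 Primary human CD4+ T cells activated with CD3/CD28 for 3 days and expanded to 7-9 days total, plated at 30,000 cells/well. Cells preincubated 15 min with compound, then stimulated with ImmunoCult (1:50 final) for 20-24 h at 37° C. Supernatant IL-2 measured by HTRF (665/615 nm); IC50 from four-parameter logistic fit.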

Tropomyosin Receptor Kinase A (TRKA), NTRK1 enzyme, sequence (P04629 33-796): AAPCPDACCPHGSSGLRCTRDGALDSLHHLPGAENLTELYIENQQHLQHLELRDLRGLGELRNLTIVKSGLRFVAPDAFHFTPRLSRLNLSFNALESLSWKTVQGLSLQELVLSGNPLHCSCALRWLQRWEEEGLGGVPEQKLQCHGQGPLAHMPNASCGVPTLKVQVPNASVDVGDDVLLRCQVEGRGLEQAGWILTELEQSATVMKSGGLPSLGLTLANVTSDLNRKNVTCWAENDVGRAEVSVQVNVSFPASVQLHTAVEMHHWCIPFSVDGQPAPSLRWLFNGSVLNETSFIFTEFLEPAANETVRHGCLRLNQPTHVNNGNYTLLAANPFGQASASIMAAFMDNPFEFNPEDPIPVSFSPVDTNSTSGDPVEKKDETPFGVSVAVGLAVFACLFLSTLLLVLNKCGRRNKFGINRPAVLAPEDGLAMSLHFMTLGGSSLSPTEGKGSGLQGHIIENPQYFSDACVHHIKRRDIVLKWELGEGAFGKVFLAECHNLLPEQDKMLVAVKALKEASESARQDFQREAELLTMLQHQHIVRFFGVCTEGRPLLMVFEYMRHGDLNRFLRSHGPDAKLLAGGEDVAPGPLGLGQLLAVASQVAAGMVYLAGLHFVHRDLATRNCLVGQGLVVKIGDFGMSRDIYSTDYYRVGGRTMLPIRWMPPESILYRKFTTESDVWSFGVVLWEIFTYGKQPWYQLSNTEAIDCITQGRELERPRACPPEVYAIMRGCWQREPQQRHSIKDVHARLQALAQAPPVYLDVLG

SMILES | inhibition at 1 µM [1] [%] | IC50 [2] [nM] | IC50 ([3]; T-cell) [nM] | TRKA % inhibition [1] [%] | IC50 [3] [nM]
C[C@@H](C(=O)N(C)c1cnc2[nH]c(-c3n[nH]c4c3C[C@@H]3C[C@]3(C)C4)nc2c1)C1CCOCC1 [Example 1, (R)-N-Methyl-N-(2-((4aS,5aR)-5a-methyl-1,4,4a,5,5a,6-hexahydrocyclopropa[f]indazol-3-yl)-3H-imidazo[4,5-b]pyridin-6-yl)-2-(tetrahydro-2H-pyran-4-yl)propenamide] | 96 | 9 | 67 |  | 
CN(C(=O)C(F)(F)C1CCOCC1)c1cnc2[nH]c(-c3n[nH]c4c3C[C@@H]3C[C@]3(C)C4)nc2c1 [Example 2, 2,2-Difluoro-N-methyl-N-(2-((4aS,5aR)-5a-methyl-1,4,4a,5,5a,6-hexahydrocyclopropa[f]indazol-3-yl)-3H-imidazo[4,5-b]pyridin-6-yl)-2-(tetrahydro-2H-pyran-4-yl)acetamide] | 108 | 14 | 92 |  | 
C[C@H](C(=O)N(C)c1cnc2[nH]c(-c3n[nH]c4c3C[C@@H]3C[C@]3(C)C4)nc2c1)C1CCOCC1 [Example 10, (S)-N-Methyl-N-(2-((4aS,5aR)-5a-methyl-1,4,4a,5,5a,6-hexahydrocyclopropa[f]indazol-3-yl)-3H-imidazo[4,5-b]pyridin-6-yl)-2-(tetrahydro-2H-pyran-4-yl)propanamide] | 98 | 91 | 338 |  | 
C[C@@H](C(=O)N(C)c1cc2[nH]c(-c3n[nH]c4c3C[C@@H]3C[C@]3(C)C4)nc2nc1F)N1CCOCC1 [Example 17, (S)-N-(5-Fluoro-2-((4aS,5aR)-5a-methyl-1,4,4a,5,5a,6-hexahydrocyclopropa[f]indazol-3-yl)-1H-imidazo[4,5-b]pyridin-6-yl)-N-methyl-2-morpholinopropanamide] | 96 | 41 | 307 |  | 
CCN(C(=O)[C@H](C)C1CCOCC1)c1cnc2[nH]c(-c3n[nH]c4c3C[C@@H]3C[C@]3(C)C4)nc2c1 [Example 19, (R)-N-Ethyl-N-(2-((4aS,5aR)-5a-methyl-1,4,4a,5,5a,6-hexahydrocyclopropa[f]indazol-3-yl)-3H-imidazo[4,5-b]pyridin-6-yl)-2-(tetrahydro-2H-pyran-4-yl)propenamide] |  | 17 |  | 98 | 153
CCN(C(=O)[C@@H](C)N1CCOCC1)c1cnc2[nH]c(-c3n[nH]c4c3CCC(C)(C)C4)nc2c1 [Example 22, (R)-N-(2-(6,6-Dimethyl-4,5,6,7-tetrahydro-1H-indazol-3-yl)-3H-imidazo[4,5-b]pyridin-6-yl)-N-ethyl-2-morpholinopropanamide] | 94 | 85 | 471 |  | 
C[C@@H](C(=O)N(C)c1cnc2[nH]c(-c3n[nH]c4c3C[C@@H]3C(F)(F)[C@]3(C)C4)nc2c1)N1CCOCC1 [Example 23, (S)-N-(2-((4aS,5aR)-5,5-Difluoro-5a-methyl-1,4,4a,5,5a,6-hexahydrocyclopropa[f]indazol-3-yl)-3H-imidazo[4,5-b]pyridin-6-yl)-N-methyl-2-morpholinopropanamide] | 54 | 1330 | 1850 |  | 
C[C@@H](C(=O)N(C)c1cnc2[nH]c(-c3n[nH]c4c3C[C@H]3C(F)(F)[C@@]3(C)C4)nc2c1)N1CCOCC1 [Example 24, (S)-N-(2-((4aR,5aS)-5,5-Difluoro-5a-methyl-1,4,4a,5,5a,6-hexahydrocyclopropa[f]indazol-3-yl)-3H-imidazo[4,5-b]pyridin-6-yl)-N-methyl-2-morpholinopropanamide] | 95 | 3 | 34 |  | 
C[C@@H](C(=O)N(C)c1cnc2[nH]c(-c3n[nH]c4c3C[C@@H]3C[C@]3(C)C4)nc2c1)N1CCOCC1 [Example 28, (S)-N-Methyl-N-(2-((4aS,5aR)-5a-methyl-1,4,4a,5,5a,6-hexahydrocyclopropa[f]indazol-3-yl)-3H-imidazo[4,5-b]pyridin-6-yl)-2-morpholinopropanamide] | 91 | 23 | 121 |  | 
C[C@@H](C(=O)N(C)c1cnc2[nH]c(-c3n[nH]c4c3C[C@H]3C[C@@]3(C)C4)nc2c1)N1CCOCC1 [Example 29, (2S)-N-Methyl-N-(2-(5a-methyl-1,4,4a,5,5a,6-hexahydrocyclopropa[f]indazol-3-yl)-3H-imidazo[4,5-b]pyridin-6-yl)-2-morpholinopropanamide] | 69 | 2850 | 2530 |  | 
CCN(C(=O)[C@H](C)N1CCOCC1)c1cnc2[nH]c(-c3n[nH]c4c3C[C@@H]3C(F)(F)[C@]3(C)C4)nc2c1 [Example 30, (S)-N-(2-((4aS,5aR)-5,5-Difluoro-5a-methyl-1,4,4a,5,5a,6-hexahydrocyclopropa[f]indazol-3-yl)-3H-imidazo[4,5-b]pyridin-6-yl)-N-ethyl-2-morpholinopropanamide] | 97 | 8 | 79 |  | 
C[C@@H](C(=O)N(CCO)c1cnc2[nH]c(-c3n[nH]c4c3C[C@@H]3C[C@]3(C)C4)nc2c1)C1CCOCC1 [Example 31, (R)-N-(2-Hydroxyethyl)-N-(2-((4aS,5aR)-5a-methyl-1,4,4a,5,5a,6-hexahydrocyclopropa[f]indazol-3-yl)-3H-imidazo[4,5-b]pyridin-6-yl)-2-(tetrahydro-2H-pyran-4-yl)propenamide] | 95 | 25 | 415 |  | 
C[C@@H](C(=O)N(C)c1cnc2[nH]c(-c3n[nH]c4c3CCC(C)(C)C4)nc2c1)C1CCOCC1 [Example 32, (R)-N-(2-(6,6-Dimethyl-4,5,6,7-tetrahydro-1H-indazol-3-yl)-3H-imidazo[4,5-b]pyridin-6-yl)-N-methyl-2-(tetrahydro-2H-pyran-4-yl)propenamide] | 94 | 17 | 167 |  | 
COc1nc2[nH]c(-c3n[nH]c4c3C[C@@H]3C[C@]3(C)C4)nc2cc1N(C)C(=O)[C@H](C)N1CCOCC1 [Example 36, (S)-N-(5-Methoxy-2-((4aS,5aR)-5a-methyl-1,4,4a,5,5a,6-hexahydrocyclopropa[f]indazol-3-yl)-3H-imidazo[4,5-b]pyridin-6-yl)-N-methyl-2-morpholinopropanamide] | 95 | 47 | 172 |  | 
COCCOc1nc2[nH]c(-c3n[nH]c4c3C[C@@H]3C[C@]3(C)C4)nc2cc1N(C)C(=O)[C@H](C)N1CCOCC1 [Example 40, (S)-N-(5-(2-Methoxyethoxy)-2-((4aS,5aR)-5a-methyl-1,4,4a,5,5a,6-hexahydrocyclopropa[f]indazol-3-yl)-3H-imidazo[4,5-b]pyridin-6-yl)-N-methyl-2-morpholinopropanamide] | 97 | 28 | 182 |  | 
CN(C(=O)CC1CCCCC1)c1cnc2nc(-c3n[nH]c4c3C[C@@H]3C[C@]3(C)C4)[nH]c2c1 [Example 47, 2-Cyclohexyl-N-methyl-N-(2-((4aS,5aR)-5a-methyl-1,4,4a,5,5a,6-hexahydrocyclopropa[f]indazol-3-yl)-1H-imidazo[4,5-b]pyridin-6-yl)acetamide] | 95 | 44 | 189 |  | 
CN(C(=O)CN1CCCOC1=O)c1cnc2nc(-c3n[nH]c4c3C[C@@H]3C[C@]3(C)C4)[nH]c2c1 [Example 57, N-Methyl-N-(2-((4aS,5aR)-5a-methyl-1,4,4a,5,5a,6-hexahydrocyclopropa[f]indazol-3-yl)-1H-imidazo[4,5-b]pyridin-6-yl)-2-(2-oxo-1,3-oxazinan-3-yl)acetamide] | 106 | 36 | 974 |  | 
CN(C(=O)CN1CCOCC1)c1cnc2nc(-c3n[nH]c4c3C[C@@H]3C[C@]3(C)C4)[nH]c2c1 [Example 58, N-Methyl-N-(2-((4aS,5aR)-5a-methyl-1,4,4a,5,5a,6-hexahydrocyclopropa[f]indazol-3-yl)-1H-imidazo[4,5-b]pyridin-6-yl)-2-morpholinoacetamide] | 108 | 102 | 380 |  | 
CN(C(=O)C1(F)CCOCC1)c1cnc2nc(-c3n[nH]c4c3C[C@@H]3C[C@]3(C)C4)[nH]c2c1 [Example 61, 4-Fluoro-N-methyl-N-(2-((4aS,5aR)-5a-methyl-1,4,4a,5,5a,6-hexahydrocyclopropa[f]indazol-3-yl)-1H-imidazo[4,5-b]pyridin-6-yl)tetrahydro-2H-pyran-4-carboxamide] | 95 | 23 | 88 |  | 
CC(=O)N(C)CC(=O)N(C)c1cnc2nc(-c3n[nH]c4c3C[C@@H]3C[C@]3(C)C4)[nH]c2c1 [Example 80, N-Methyl-N-(2-((4aS,5aR)-5a-methyl-1,4,4a,5,5a,6-hexahydrocyclopropa[f]indazol-3-yl)-1H-imidazo[4,5-b]pyridin-6-yl)-2-(N-methylacetamido)acetamide] | 96 | 54 | 1250 |  | 
